Source: ChEMBL document CHEMBL1143951, “Synthesis and cytotoxicity evaluation of 22,23-oxygenated stigmastane derivatives” (Bioorg Med Chem, 2008)

Experiments:
MCF7 = assay: Cytotoxicity against human MCF7 cells after 48 hrs by MTT assay; format: functional, cell-based
HepG2 = assay: Cytotoxicity against human HepG2 cells after 48 hrs by MTT assay; format: functional, cell-based

CC[C@@H](C(C)C)[C@@H](O)[C@H](O)[C@@H](C)[C@H]1CC[C@H]2[C@@H]3CC(=O)C4=CC(=O)CC[C@]4(C)[C@H]3CC[C@]12C
Activity (MCF7): Toxic

CCC(C(C)C)[C@@H](O)[C@H](O)[C@@H](C)[C@H]1CC[C@H]2[C@@H]3C[C@@H]4O[C@@]45C[C@@H](O)CC[C@]5(C)[C@H]3CC[C@]12C (stereo partly specified)
Activity (MCF7): Toxic

CCC(C(C)C)[C@H]1O[C@@H]1[C@@H](C)[C@H]1CC[C@H]2[C@@H]3[C@H](O)C=C4C[C@@H](O)CC[C@]4(C)[C@H]3CC[C@]12C (stereo partly specified)
Activity (HepG2): Toxic | Activity (MCF7): Toxic

CCC(C(C)C)[C@@H](O)[C@H](O)[C@@H](C)[C@H]1CC[C@H]2[C@@H]3C[C@@H](O)[C@@]4(O)C[C@@H](O)CC[C@]4(C)[C@H]3CC[C@]12C (stereo partly specified)
Activity (HepG2): Toxic | Activity (MCF7): Toxic

CCC(C(C)C)[C@@H](O)[C@H](O)[C@@H](C)[C@H]1CC[C@H]2[C@@H]3C(=O)C=C4C[C@@H](O)CC[C@]4(C)[C@H]3CC[C@]12C (stereo partly specified)
Activity (HepG2): Toxic | Activity (MCF7): Toxic

CC[C@@H](C(C)C)[C@@H](O)[C@H](O)[C@@H](C)[C@H]1CC[C@H]2[C@@H]3CCC4=CC(=O)CC[C@]4(C)[C@H]3CC[C@]12C
Activity (MCF7): Toxic

CCC(C(C)C)[C@@H](O)[C@H](O)[C@@H](C)[C@H]1CC[C@H]2[C@@H]3CC=C4C[C@@H](O)CC[C@]4(C)[C@H]3CC[C@]12C (stereo partly specified)
Activity (HepG2): Toxic | Activity (MCF7): Toxic
